Values of other authors in paper PMC9694544, “Conteltinib (CT-707) in patients with advanced ALK-positive non-small cell lung cancer: a multicenter, open-label, first-in-human phase 1 study” (BMC Medicine, 2022).
Read-outs that look alike come from different tables or passages of the source.

Assays:
[1] = system: ALK-positive NSCLC; settings: cited from earlier work
[2] = system: patients with ALK-positive NSCLC; settings: cited from earlier work
[3] = ALK TKI-naïve patients, at RP2D
[4] = patients who received crizotinib previously, at RP2D
[5] = patients who received crizotinib previously, at the dose-expansion phase
[6] = patients who received crizotinib previously, at MTD
[7] = ALK TKI-naïve patients, at the dose around RP2D
[8] = patients who received crizotinib previously, at the dose around RP2D

For COc1cc(N2CCC(N3CCN(C)CC3)CC2)ccc1Nc1ncc(Cl)c(Nc2ccccc2P(C)(C)=O)n1 [brigatinib], the ORR [1, 3] is given as 100%, the “median PFS” value [1, 3] is given as 30.8 months and the ORR [1, 4] is given as 72%. The “median PFS” value [1, 4] was 12.9 months and the “incidence of grade ≥ 3 TRAEs” value [2] was 36%.

In the case of COc1cc(N2CCC3(CCN(C)CC3)CC2)ccc1Nc1ncc(Cl)c(Nc2ccccc2P(C)(C)=O)n1 [iruplinalkib], the ORR ([1]; ALK TKI-naïve patients, at the dose-expansion phase) is given as 76.3%, the ORR [1, 5] is given as 45.7% and the “median PFS” value [1, 5] is given as 6.9 months. The “incidence of grade ≥ 3 TRAEs” value [2] was 35% and the rash [2] was 13%.

In the case of Cc1cc(Nc2ncc(Cl)c(Nc3ccccc3S(=O)(=O)C(C)C)n2)c(OC(C)C)cc1C1CCNCC1 [ceritinib], the ORR ([1]; ALK TKI-naïve patients, at MTD) is given as 59%, the “median PFS” value ([1]; ALK TKI-naïve patients, at MTD) is given as 18.4 months and the ORR [1, 6] is given as 56%. The “median PFS” value [1, 6] was 6.9 months, the “incidence of grade ≥ 3 TRAEs” value [2] was 49% and the rash [2] was 13%.

For C[C@@H]1CN(C(=O)c2ccc(NC(=O)c3cc(O[C@H](C)c4c(Cl)ccc(F)c4Cl)c(N)nn3)cc2)C[C@H](C)N1 [ensartinib], the ORR [1, 7] is listed as 80.0%, the “median PFS” value [1, 7] is listed as 26.2 months and the ORR [1, 8] is listed as 69.0%. The “median PFS” value [1, 8] was 9.0 months, the “incidence of grade ≥ 3 TRAEs” value [2] was 23% and the rash [2] was 56%. The rash ([2]; grade ≥ 3) was 12%.
